Literature values in PMC11173647, “Anti-Inflammatory Activity of Pyrazolo[1,5-a]quinazolines” (Molecules, 2024).

Assays:
Parameters in all cases: method as in PMID 32696514
cyclooxygenase 2 (COX-2) = details: cited from earlier work
5-lipoxygenase (5-LOX) = details: cited from earlier work
[1] = system: carrageenan-induced paw edema; details: carrageenan-induced paw edema model, 10 mg/kg; cited from earlier work
[2] = system: gastric ulcerogenic effects; details: in vivo; cited from earlier work

## COc1cc(/C=c2/c(=O)[nH]n3c(=O)c4ccccc4nc23)cc(OC)c1OC [A]
Cyclooxygenase 2 (COX-2); COX-2 versus COX-1
  selectivity toward COX-2 versus COX-1: about 14 fold
Cyclooxygenase 2 (COX-2)
  IC50: 0.047 µM
5-lipoxygenase (5-LOX)
  IC50: 2.3 µM
[1]
  reduction of edema: 39%
[2]
  gastric ulcerogenic effects: did not exhibit gastric ulcerogenic effects
